Data from ChEMBL document CHEMBL3526096, “Species differences in biliary clearance and possible relevance of hepatic uptake and efflux transporters involvement” (Drug Metab Dispos, 2013).

Columns and labels:
[1] = Drug excretion in rat assessed as compound excreted into bile at 10 mg/kg, iv
[2] = Drug excretion in human assessed as compound excreted into bile at 400 mg, po after 24 hrs by T-tube method
[3] = Drug excretion in iv dosed rat assessed as compound excreted into bile; type: ADME, organism-based; conditions: read-out: Drug excretion
Canis familiaris [4] = assay: Total biliary clearance in beagle dog at 20 mg/kg, iv; type: ADME, organism-based, Canis lupus familiaris, Bile; parameters: dose 20 mg/kg, route intravenous; conditions: in vivo
[5] = Drug excretion in Sprague-Dawley rat assessed as compound excreted into bile at 20 mg/kg, iv; type: ADME, organism-based; parameters: dose 20 mg/kg, route intravenous; conditions: read-out: Drug excretion
Rattus norvegicus [6] = assay: Unbound biliary clearance in Sprague-Dawley rat at 20 mg/kg, iv; type: ADME, organism-based, Bile; parameters: dose 20 mg/kg, route intravenous; conditions: in vivo
Canis familiaris [7] = assay: Unbound biliary clearance in beagle dog at 20 mg/kg, iv; type: ADME, organism-based, Canis lupus familiaris, Bile; parameters: dose 20 mg/kg, route intravenous; conditions: in vivo
[8] = Drug excretion in beagle dog assessed as compound excreted into bile at 20 mg/kg, iv; type: ADME, organism-based, Canis lupus familiaris; parameters: dose 20 mg/kg, route intravenous; conditions: read-out: Drug excretion
Homo sapiens [9] = assay: Unbound biliary clearance in iv dosed human after 6 to 8 hrs by duodenal perfusion method; type: ADME, organism-based, Bile; conditions: in vivo
Rattus norvegicus [10] = assay: Total biliary clearance in Sprague-Dawley rat at 20 mg/kg, iv; type: ADME, organism-based, Bile; parameters: dose 20 mg/kg, route intravenous; conditions: in vivo
[11] = Drug excretion in iv dosed human assessed as compound excreted into bile after 6 to 8 hrs by duodenal perfusion method; type: ADME, organism-based; conditions: read-out: Drug excretion
Homo sapiens [12] = assay: Total biliary clearance in iv dosed human after 6 to 8 hrs by duodenal perfusion method; type: ADME, organism-based, Bile; conditions: in vivo
Homo sapiens [13] = assay: Unbound biliary clearance in human at 20 mg, iv after 24 hrs by T-tube method; type: ADME, organism-based, Bile; conditions: in vivo
Rattus norvegicus [14] = assay: Unbound biliary clearance in Sprague-Dawley rat at 8 uCi, iv; type: ADME, organism-based, Bile; conditions: in vivo
[15] = Drug excretion in human assessed as compound excreted into bile at 20 mg, iv after 24 hrs by T-tube method; type: ADME, organism-based; conditions: read-out: Drug excretion
Homo sapiens [16] = assay: Total biliary clearance in human at 20 mg, iv after 24 hrs by T-tube method; type: ADME, organism-based, Bile; conditions: in vivo
Rattus norvegicus [17] = assay: Total biliary clearance in Sprague-Dawley rat at 8 uCi, iv; type: ADME, organism-based, Bile; conditions: in vivo
[18] = Drug excretion in human assessed as compound excreted into bile at 60 mg, po after 12 hrs by fecal extraction method
[19] = Drug excretion in iv dosed Wistar rat assessed as compound excreted into bile; type: ADME, organism-based; conditions: read-out: Drug excretion
Rattus norvegicus [20] = assay: Unbound biliary clearance in iv dosed rat; type: ADME, organism-based, Bile; conditions: in vivo
[21] = Drug excretion in iv dosed human assessed as compound excreted into bile after 24 hrs by T-tube method; type: ADME, organism-based; conditions: read-out: Drug excretion
Rattus norvegicus [22] = assay: Total biliary clearance in iv dosed rat; type: ADME, organism-based, Bile; conditions: in vivo
Homo sapiens [23] = assay: Unbound biliary clearance in iv dosed human after 24 hrs by T-tube method; type: ADME, organism-based, Bile; conditions: in vivo
Homo sapiens [24] = assay: Total biliary clearance in iv dosed human after 24 hrs by T-tube method; type: ADME, organism-based, Bile; conditions: in vivo
[25] = Drug excretion in po dosed human assessed as compound excreted into bile after 24 hrs by T-tube method; type: ADME, organism-based; conditions: read-out: Drug excretion
Homo sapiens [26] = assay: Total biliary clearance in iv dosed human after 20 hrs by duodenal aspiration method; type: ADME, organism-based, Bile; conditions: in vivo
Canis familiaris [27] = assay: Total biliary clearance in iv dosed dog; type: ADME, organism-based, Canis lupus familiaris, Bile; conditions: in vivo
Canis familiaris [28] = assay: Unbound biliary clearance in iv dosed dog; type: ADME, organism-based, Canis lupus familiaris, Bile; conditions: in vivo
[29] = Drug excretion in iv dosed dog assessed as compound excreted into bile; type: ADME, organism-based, Canis lupus familiaris; conditions: read-out: Drug excretion
Rattus norvegicus [30] = assay: Total biliary clearance in Wistar rat at 10 mg/kg, iv; type: ADME, organism-based, Bile; parameters: dose 10 mg/kg, route intravenous; conditions: in vivo
Homo sapiens [31] = assay: Unbound biliary clearance in iv dosed human after 20 hrs; type: ADME, organism-based, Bile; conditions: in vivo
[32] = Drug excretion in iv dosed human assessed as compound excreted into bile after 20 hrs; type: ADME, organism-based; conditions: read-out: Drug excretion
[33] = Drug excretion in Wistar rat assessed as compound excreted into bile at 10 mg/kg, iv; type: ADME, organism-based; parameters: dose 10 mg/kg, route intravenous; conditions: read-out: Drug excretion
Rattus norvegicus [34] = assay: Unbound biliary clearance in Wistar rat at 10 mg/kg, iv; type: ADME, organism-based, Bile; parameters: dose 10 mg/kg, route intravenous; conditions: in vivo
Rattus norvegicus [35] = assay: Total biliary clearance in Sprague-Dawley rat at 5 mg/kg, iv; type: ADME, organism-based, Bile; parameters: dose 5 mg/kg, route intravenous; conditions: in vivo
Rattus norvegicus [36] = assay: Unbound biliary clearance in Sprague-Dawley rat at 5 mg/kg, iv; type: ADME, organism-based, Bile; parameters: dose 5 mg/kg, route intravenous; conditions: in vivo
[37] = Drug excretion in Sprague-Dawley rat assessed as compound excreted into bile at 5 mg/kg, iv; type: ADME, organism-based; parameters: dose 5 mg/kg, route intravenous; conditions: read-out: Drug excretion

O=C(O)c1cn(C2CC2)c2cc(N3CCNCC3)c(F)cc2c1=O [CIPROFLOXACIN]
dose excreted [1]: 10% | dose excreted at 24 h [2]: 0.5%

CC1=C(C(=O)O)N2C(=O)[C@@H](NC(=O)[C@H](N)c3ccccc3)[C@H]2SC1 [CEPHALEXIN ANHYDROUS]
dose excreted [3]: 32%

CO/N=C(\C(=O)N[C@@H]1C(=O)N2C(C(=O)O)=C(CSc3nc(=O)c(=O)[nH]n3C)CS[C@H]12)c1csc(N)n1 [CEFTRIAXONE]
CL (Canis familiaris [4]): 2.5 mL/min/kg | dose excreted [5]: 62% | CL free (Rattus norvegicus [6]): 12.73 mL/min/kg | CL free (Canis familiaris [7]): 2.907 mL/min/kg | dose excreted [8]: 63% | CL free (Homo sapiens [9]): 0.933 mL/min/kg | CL (Rattus norvegicus [10]): 0.82 mL/min/kg | dose excreted [11]: 30% | CL (Homo sapiens [12]): 0.07 mL/min/kg

CCCCC(=O)N(Cc1ccc(-c2ccccc2-c2nnn[nH]2)cc1)[C@H](C(=O)O)C(C)C
CL free (Homo sapiens [13]): 10.775 mL/min/kg | CL free (Rattus norvegicus [14]): 378.8 mL/min/kg | dose excreted at 24 h [15]: 88% | CL (Homo sapiens [16]): 0.431 mL/min/kg | CL (Rattus norvegicus [17]): 12.5 mL/min/kg

CC(C)(C(=O)O)c1ccc(C(O)CCCN2CCC(C(O)(c3ccccc3)c3ccccc3)CC2)cc1 (stereo not drawn) [FEXOFENADINE]
dose excreted at 12 h [18]: 23% | dose excreted [19]: 28%

CC[C@H](C)C(=O)O[C@H]1C[C@H](O)C=C2C=C[C@H](C)[C@H](CC[C@@H](O)C[C@@H](O)CC(=O)O)[C@H]21 [PRAVASTATIN]
dose excreted [3]: 40% | CL free (Rattus norvegicus [20]): 78.57 mL/min/kg | dose excreted at 24 h [21]: 23% | CL (Rattus norvegicus [22]): 27.5 mL/min/kg | CL free (Homo sapiens [23]): 6.21 mL/min/kg | CL (Homo sapiens [24]): 3.105 mL/min/kg

CCC(=O)C(CC(C)N(C)C)(c1ccccc1)c1ccccc1 (stereo not drawn) [METHADONE]
dose excreted [3]: 9% | dose excreted at 24 h [25]: 0.06%

CC[C@H]1OC(=O)[C@H](C)[C@@H](O[C@H]2C[C@@](C)(OC)[C@@H](O)[C@H](C)O2)[C@H](C)[C@@H](O[C@@H]2O[C@H](C)C[C@H](N(C)C)[C@H]2O)[C@](C)(O)C[C@@H](C)C(=O)[C@H](C)[C@@H](O)[C@]1(C)O [ERYTHROMYCIN]
CL (Homo sapiens [26]): 1.147 mL/min/kg | CL (Canis familiaris [27]): 2.376 mL/min/kg | CL free (Canis familiaris [28]): 4.483 mL/min/kg | dose excreted [29]: 5% | CL (Rattus norvegicus [30]): 17.4 mL/min/kg | CL free (Homo sapiens [31]): 7.169 mL/min/kg | dose excreted at 20 h [32]: 13% | dose excreted [33]: 30% | CL free (Rattus norvegicus [34]): 22.38 mL/min/kg

COc1cccc2c1C(=O)c1c(O)c3c(c(O)c1C2=O)C[C@@](O)(C(=O)CO)C[C@@H]3O[C@H]1C[C@H](N)[C@H](O)[C@H](C)O1 [DOXORUBICIN]
CL (Canis familiaris [27]): 1.72 mL/min/kg | CL free (Canis familiaris [28]): 5.059 mL/min/kg | dose excreted [29]: 10% | dose excreted at 24 h [21]: 14% | CL (Rattus norvegicus [35]): 3.68 mL/min/kg | CL free (Rattus norvegicus [36]): 10.82 mL/min/kg | CL free (Homo sapiens [23]): 7.268 mL/min/kg | dose excreted [37]: 17% | CL (Homo sapiens [24]): 2.035 mL/min/kg

CN(Cc1cnc2nc(N)nc(N)c2n1)c1ccc(C(=O)N[C@@H](CCC(=O)O)C(=O)O)cc1 [METHOTREXATE]
CL (Canis familiaris [27]): 0.217 mL/min/kg | dose excreted [3]: 64% | CL free (Canis familiaris [28]): 0.344 mL/min/kg | CL free (Rattus norvegicus [20]): 12.47 mL/min/kg | dose excreted at 24 h [21]: 10% | CL (Rattus norvegicus [22]): 9.6 mL/min/kg | CL free (Homo sapiens [23]): 1.108 mL/min/kg | CL (Homo sapiens [24]): 0.048 mL/min/kg
